From patent US10092620B2, “Uses of cyclic peptides for treating and preventing atherosclerosis” (THE SCRIPPS RESEARCH INSTITUTE, priority 2013, dated 2018)
Non-standard residues stand in square brackets, D forms with d. Residues, ends and D or L forms follow the SMILES beside them.

Legend:
human plasma HDL = human plasma HDL remodeling (NDGGE, immunoblot for human apoA-I); format: biochemical; conditions: human plasma in vitro; Western blot for apoA-I; FIGS. 1 and 2a
Excerpt: As an initial phase of investigation, we evaluated in vitro the effectiveness of our cyclic D,L-α-peptides to remodel mature human plasma HDLs into lipid-poor HDL (FIG. 1 and FIG. 2a). Lipid-poor HDL particles are key acceptors of cholesterol in reverse cholesterol transport and are thus crucial for combating atherosclerosis. In fact, with respect to the cholesterol efflux capacity of human sera, the levels of lipid-poor HDL correlate much better than the levels of HDL-cholesterol or apoA-I. Briefly, our assay involved incubating human plasma with a peptide, after which the plasma sample was subjected to non-denaturing gradient gel electrophoresis (NDGGE) to separate the HDL subspecies and then immunoblotted for human apoA-I. The ranked activities of the cyclic D,L-α-peptides in promoting formation of lipid-poor HDL are shown in FIG. 1. It should be noted that there are inherent variabilities associated with electrophoretic transfer, staining, and densitometric quantitation, so the peptide ranking should be viewed as an approximate guide to relative plasma HDL remodeling efficacy. Nevertheless, the rankings were similar overall whether the panel was assayed by using peptide stock solutions prepared in 10% sucrose/H2O (FIGS. 1 and 2a) or peptide stock solutions prepared in 1:1 DMSO/H2O. From these preliminary structure-activity relationship (SAR) studies, we identified a pronounced sequence dependence for efficient plasma HDL remodeling (vide infra).
Human plasma remodeling: All procedures involving human samples were approved by TSRI Institutional Review Board. Procedures were modified from those reported in Troutt et al., J. Lipid Res. 49, 581-587, 2008. Blood samples from normal healthy human donors were obtained from TSRI Normal Blood Donor Program. EDTA-anticoagulated whole blood was centrifuged at 1500×g for 15 min within 1 h of being drawn from the donor. The plasma layer was aliquoted and used immediately or frozen at −80° C. for future use. Peptide stock solutions were prepared at ˜15 mM peptide in 50% DMSO for initial screenings, or at ˜2 mM peptide in 10% sucrose for remodeling assays at lower concentrations (FIG. 1) and cholesterol efflux assays (FIG. 2). Plasma samples (30 μL) were treated with peptide stocks, and the samples were incubated at 37° C. for 0.5-1 h, and then quenched by adding 270 μL of 50% sucrose (1:9 dilution). Samples were mixed with 6× native loading buffer (125 mM tris, pH 6.8, 0.02% bromophenol, 20% glycerol), of which 6 μL was loaded onto a 4-20% polyacrylamide gel. The molecular weight ladder used was High Molecular Weight Calibration Kit (Amersham Biosciences, #17-0445-01). […] The films were scanned and quantified by densitometry using the program LabWorks (v. 4.0.0.8). […]

LDLr-null mice = assay: plasma lipoprotein and lipoprotein cholesterol profiles (FPLC of pooled plasma); format: in vivo, mouse; conditions: 2 weeks oral ~25 mg/kg/day
Description: Effect of cyclic peptides on plasma lipoprotein and lipoprotein cholesterol profiles: Pooled plasma (240 μL total, 30 μL from each, n=8 mice per group) from the two-week blood draw was used for fast protein liquid chromatography (FPLC) analysis. Lipoproteins were separated by using 3 Superdex 200 10/30 columns connected in series (GE Healthcare). The plasma was centrifuged at 11,000 rpm for 10 min at room temperature to remove particulates (floating material was gently mixed into liquid before removing the supernatant for FPLC injection). 200 μL of the pooled plasma was injected on the system eluted with 10 mM tris-HCl buffer, pH 7.4, containing 1 mM EDTA and 150 mM NaCl; a flow rate of 0.5 ml/min and fraction size of 0.5 mL were used. Total cholesterol in the FPLC fractions was measured using the Amplex® red cholesterol assay kit (No. A12216, Life Technologies) according to the manufacturer's instructions. 20 μL of selected HDL fractions (as indicated in FIG. 6) were mixed with 4 μL of 6× native loading buffer (375 mM tris, pH 6.8, 0.06% bromophenol, 60% glycerol), out of which 20 μL was applied to non-denaturing gel electrophoresis and then immunoblotted for mouse apoA-I as described above.

[1] = listed as c[wLwReQeR], 25 mg/kg/day

## CC(C)C[C@@H]1NC(=O)[C@@H](Cc2c[nH]c3ccccc23)NC(=O)[C@H](CCCNC(=N)N)NC(=O)[C@@H](CCC(=O)O)NC(=O)[C@H](CCC(N)=O)NC(=O)[C@@H](CCC(=O)O)NC(=O)[C@H](CCCNC(=N)N)NC(=O)[C@@H](Cc2c[nH]c3ccccc23)NC1=O [SEQ ID NO:1, c[wLwReQeR]] (cyclo([dW]L[dW]R[dE]Q[dE]R))
Human plasma HDL
  plasma HDL remodeling to lipid-poor HDL (in words): considerably more active than any of four analogs
LDLr-null mice; listed as 1, 25 mg/kg/day
  HDL particle size (FPLC lipoprotein profile): remodeled in favor of the smaller HDL particle sizes
  VLDL and LDL levels (FPLC lipoprotein profile): reduced levels of VLDL and LDL
LDLr-null mice; [1]
  HDL particle size (FPLC lipoprotein profile): modest shift to smaller (later eluting) particles
  VLDL and LDL levels (FPLC lipoprotein profile): decreases in the VLDL and LDL levels
LDLr-null mice; vs vehicle
  HDL levels (FPLC lipoprotein profile): comparable for both groups
